We go through ten molecules from patent publication US20240238423A9, “TETRAHYDROISOQUINOLINE HETEROBIFUNCTIONAL BCL-XL DEGRADERS” (Treeline Biosciences, Inc., priority 2022, published 2024).

Where two headings read alike, the source gives them in different places.

This assay concerns the target T1, Human BCL-XL protein (N-terminal HiBiT tagged BCL-XL in HT1080 cells) (Homo sapiens, UniProt Q07817).
T1 construct: expressed in transfected cells; host or cells: HT-1080 (ATCC CCL-121), stably transduced with lentivirus pLV-UBC-N-HiBiT-BCL-XL-PGK-puro and selected with puromycin
Kind of assay: HiBiT based degradation assay. Conditions: HT1080 cells expressing HiBiT-BCL-XL; for Ymin (6 h) / Ymin (24 h): BCL-XL degradation normalized with DMSO control; for DC50: BCL-XL degradation. Type of assay: cell-based. In a few lines: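 HT1080 cells stably transduced by lentivirus with N-terminally HiBiT-tagged human BCL-XL and kept under 1 μg/mL puromycin selection were seeded at three thousand cells per well in 40 μL RPMI 1640 into 384-well plates pre-spotted with compounds across a concentration range. Luminescence was read on a PHERAstar FSX, normalized to DMSO, and fitted with a four-parameter logistic model.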

T1 sequence (Q07817 whole entry): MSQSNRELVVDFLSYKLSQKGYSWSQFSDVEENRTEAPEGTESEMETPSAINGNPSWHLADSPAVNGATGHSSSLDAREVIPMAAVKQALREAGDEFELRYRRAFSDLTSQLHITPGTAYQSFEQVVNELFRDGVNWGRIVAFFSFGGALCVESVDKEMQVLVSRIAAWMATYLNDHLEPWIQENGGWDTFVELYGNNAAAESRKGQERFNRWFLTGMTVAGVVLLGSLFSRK

With `Cc1c(OCCC2CCN(CC(=O)Nc3ccc4c(C5CCC(=O)NC5=O)nn(C)c4c3)CC2)cccc1-c1ccc(N2CCc3cccc(C(=O)Nc4nc5ccccc5s4)c3C2)nc1C(=O)O` (stereo not drawn) [Compound 106, 6-[8-(1,3-benzothiazol-2-ylcarbamoyl)-3,4-dihydro-1H-isoquinolin-2-yl]-3-[3-[2-[1-[2-[[3-(2,6-dioxo-3-piperidyl)-1-methyl-indazol-6-yl]amino]-2-oxo-ethyl]-4-piperidyl]ethoxy]-2-methyl-phenyl]pyridine-2-carboxylic acid], the “Ymin (6 h)” value (6 h) is reported as “A (Ymin < 50%)”. The “Ymin (24 h)” value (24 h) was “A (Ymin < 50%)”. The DC50 by setting is: (6 h, read-out: EC50 (6 h)) below 100 nM; (24 h, read-out: EC50 (24 h)) below 100 nM.

As to `Cc1c(Oc2ccc(CCC(=O)Nc3ccc4c(C5CCC(=O)NC5=O)nn(C)c4c3)cc2)cccc1-c1ccc(N2CCc3cccc(C(=O)Nc4nc5ccccc5s4)c3C2)nc1C(=O)O` (stereo not drawn) [Compound 107, 6-[8-(1,3-benzothiazol-2-ylcarbamoyl)-3,4-dihydro-1H-isoquinolin-2-yl]-3-[3-[4-[3-[[3-(2,6-dioxo-3-piperidyl)-1-methyl-indazol-6-yl]amino]-3-oxo-propyl]phenoxy]-2-methyl-phenyl]pyridine-2-carboxylic acid], the “Ymin (6 h)” value (6 h) was “C (Ymin ≥ 70%)”. Also, under “24 h”, the “Ymin (24 h)” value was “C (Ymin ≥ 70%)”. In addition, the DC50 (6 h, read-out: EC50 (6 h)) lay in the range of 1000 to 10000 nM and the DC50 (24 h, read-out: EC50 (24 h)) was in the range of 1000 to 10000 nM.

As to `Cc1c(-c2ccc(N3CCc4cccc(C(=O)Nc5nc6ccccc6s5)c4C3)nc2C(=O)NCCCCCC(=O)Nc2cccc3c(C4CCC(=O)NC4=O)nn(C)c23)cnn1CC12CC3CC(CC(C3)C1)C2` (stereo not drawn) [Compound 108, 2-(5-(1-(((3r,5r,7r)-adamantan-1-yl)methyl)-5-methyl-1H-pyrazol-4-yl)-6-((6-((3-(2,6-dioxopiperidin-3-yl)-1-methyl-1H-indazol-7-yl)amino)-6-oxohexyl)carbamoyl)pyridin-2-yl)-N-(benzo[d]thiazol-2-yl)-1,2,3,4-tetrahydroisoquinoline-8-carboxamide], the “Ymin (6 h)” value (6 h) is on record as “B (50% ≤ Ymin < 70%)”. Also, the DC50 (6 h, read-out: EC50 (6 h)) was below 100 nM.

Consider `Cc1c(-c2ccc(N3CCc4cccc(C(=O)Nc5nc6ccccc6s5)c4C3)nc2C(=O)NCCCCCCCCCC(=O)Nc2cccc3c(C4CCC(=O)NC4=O)nn(C)c23)cnn1CC12CC3CC(CC(C3)C1)C2` [Compound 109, 2-(5-(1-((3R, 5R, 7R)-adamantan-1-ylmethyl)-5-methyl-1H-pyrazol-4-yl)-6-((10-((3-(2,6-dioxopiperidin-3-yl)-1-methyl-1H-indazol-7-yl)amino)-10-oxodecyl)carbamoyl)pyridin-2-yl)-N-(benzo[d]thiazol-2-yl)-1,2,3,4-tetrahydroisoquinoline-8-carboxamide], for which the “Ymin (6 h)” value (6 h) is listed as “B (50% ≤ Ymin < 70%)”. Further, the DC50 (6 h, read-out: EC50 (6 h)) is below 100 nM.

Regarding `Cc1c(-c2ccc(N3CCc4cccc(C(=O)Nc5nc6ccccc6s5)c4C3)nc2C(=O)NCCCCCCCCCCCC(=O)Nc2cccc3c(C4CCC(=O)NC4=O)nn(C)c23)cnn1CC12CC3CC(CC(C3)C1)C2` (stereo not drawn) [Compound 110, 2-(5-(1-((3r,5r,7r)-adamantan-1-ylmethyl)-5-methyl-1H-pyrazol-4-yl)-6-((12-((3-(2,6-dioxopiperidin-3-yl)-1-methyl-1H-indazol-7-yl)amino)-12-oxododecyl)carbamoyl)pyridin-2-yl)-N-(benzo[d]thiazol-2-yl)-1,2,3,4-tetrahydroisoquinoline-8-carboxamide], for the setting “6 h”, the “Ymin (6 h)” value is given as “B (50% ≤ Ymin < 70%)”. The DC50 (6 h, read-out: EC50 (6 h)) was below 100 nM.

Regarding `Cc1c(-c2ccc(N3CCc4cccc(C(=O)Nc5nc6ccccc6s5)c4C3)nc2C(=O)NCCCCCC(=O)Nc2ccc3c(C4CCC(=O)NC4=O)nn(C)c3c2)cnn1CC12CC3CC(CC(C3)C1)C2` (stereo not drawn) [Compound 111, 2-(5-(1-(((3r,5r,7r)-adamantan-1-yl)methyl)-5-methyl-1H-pyrazol-4-yl)-6-((6-((3-(2,6-dioxopiperidin-3-yl)-1-methyl-1H-indazol-6-yl)amino)-6-oxohexyl)carbamoyl)pyridin-2-yl)-N-(benzo[d]thiazol-2-yl)-1,2,3,4-tetrahydroisoquinoline-8-carboxamide], for the setting “6 h”, the “Ymin (6 h)” value is listed as “B (50% ≤ Ymin < 70%)”. Where the note is “6 h, read-out: EC50 (6 h)”, the DC50 was below 100 nM.

`Cc1c(-c2ccc(N3CCc4cccc(C(=O)Nc5nc6ccccc6s5)c4C3)nc2C(=O)NCCCCCCCCCC(=O)Nc2ccc3c(C4CCC(=O)NC4=O)nn(C)c3c2)cnn1CC12CC3CC(CC(C3)C1)C2` (stereo not drawn) [Compound 112, 2-[5-[1-(1-adamantylmethyl)-5-methyl-pyrazol-4-yl]-6-[[10-[[3-(2,6-dioxo-3-piperidyl)-1-methyl-indazol-6-yl]amino]-10-oxo-decyl]carbamoyl]-2-pyridyl]-N-(1,3-benzothiazol-2-yl)-3,4-dihydro-1H-isoquinoline-8-carboxamide]: where the note is “6 h”, the “Ymin (6 h)” value was “B (50% ≤ Ymin < 70%)”. Further, the DC50 (6 h, read-out: EC50 (6 h)) was below 100 nM.

Consider `Cc1c(-c2ccc(N3CCc4cccc(C(=O)Nc5nc6ccccc6s5)c4C3)nc2C(=O)NCCCCCCCCCCCC(=O)Nc2ccc3c(C4CCC(=O)NC4=O)nn(C)c3c2)cnn1CC12CC3CC(CC(C3)C1)C2` (stereo not drawn) [Compound 113, 2-(5-(1-((3r,5r,7r)-adamantan-1-ylmethyl)-5-methyl-1H-pyrazol-4-yl)-6-((12-((3-(2,6-dioxopiperidin-3-yl)-1-methyl-1H-indazol-6-yl)amino)-12-oxododecyl)carbamoyl)pyridin-2-yl)-N-(benzo[d]thiazol-2-yl)-1,2,3,4-tetrahydroisoquinoline-8-carboxamide], for which the “Ymin (6 h)” value (6 h) is given as “B (50% ≤ Ymin < 70%)”. Also, the DC50 (6 h, read-out: EC50 (6 h)) lay in the range of 100 to 1000 nM.

Turning to `Cc1c(-c2ccc(N3CCc4cccc(C(=O)Nc5nc6ccccc6s5)c4C3)nc2C(=O)NCCCCCCCC(=O)Nc2cccc3c(C4CCC(=O)NC4=O)nn(C)c23)cnn1CC12CC3CC(CC(C3)C1)C2` (stereo not drawn) [Compound 114, 2-[5-[1-(1-adamantylmethyl)-5-methyl-pyrazol-4-yl]-6-[[8-[[3-(2,6-dioxo-3-piperidyl)-1-methyl-indazol-7-yl]amino]-8-oxo-octyl]carbamoyl]-2-pyridyl]-N-(1,3-benzothiazol-2-yl)-3,4-dihydro-1H-isoquinoline-8-carboxamide], the “Ymin (6 h)” value (6 h) is on record as “A (Ymin < 50%)”. Moreover, under “6 h, read-out: EC50 (6 h)”, the DC50 is below 100 nM.

For the molecule `Cc1c(-c2ccc(N3CCc4cccc(C(=O)Nc5nc6ccccc6s5)c4C3)nc2C(=O)NCC(=O)Nc2ccc3c(C4CCC(=O)NC4=O)nn(C)c3c2)cnn1CC12CC3CC(CC(C3)C1)C2` [Compound 115, 2-(5-(1-((1R,3S)-adamantan-1-ylmethyl)-5-methyl-1H-pyrazol-4-yl)-6-((2-((3-(2,6-dioxopiperidin-3-yl)-1-methyl-1H-indazol-6-yl)amino)-2-oxoethyl)carbamoyl)pyridin-2-yl)-N-(benzo[d]thiazol-2-yl)-1,2,3,4-tetrahydroisoquinoline-8-carboxamide], the “Ymin (6 h)” value (6 h) is recorded as “B (50% ≤ Ymin < 70%)”. The DC50 (6 h, read-out: EC50 (6 h)) is below 100 nM.
